From US20200230084A1 (Strongbridge Dublin Limited, priority 2019, published 2020)
“Also recorded” adds a separate entry of the source.

How the values were obtained:
[1] = cited from earlier work
[2] = cited from earlier work; remark: listed apart in the source
[3] = tested on: patients with primary periodic paralysis; experiment: Phase III double-blind plus open-label extension study: cognition-related adverse events during dichlorphenamide treatment; type: in vivo, human
Procedure: Data were analyzed from a 9-week Phase III, randomized, double-blind, placebo-controlled phase and a 52-week open-label extension phase. The trial included two substudies: one in adults with hyperkalemic periodic paralysis and one in adults with hypokalemic periodic paralysis. The substudy data were pooled. Medical Dictionary for Regulatory Activities high-level group terms of deliria (including confusion) and mental impairment disorders were pooled for cognition-related events. Kaplan-Meier methods were used to estimate the percentages of patients with no occurrence of the adverse event over time.
Dose reductions were allowed for intolerable adverse events. […] Adverse events reported during dichlorphenamide exposure were summarized by double-blind treatment/open label treatment (placebo/dichlorphenamide or dichlorphenamide/dichlorphenamide) group.
The age range was 19 to 76 years.

[4] = n = 63, cognition-related adverse events
[5] = n = 63, considered by investigators at least possibly related to study drug
[6] = n = 63, listed as dichlorphenamide

NS(=O)(=O)c1cc(Cl)c(Cl)c(S(N)(=O)=O)c1 [Dichlorphenamide, 4,5-dichloro-1,3-benzenedisulfonamide]
Solubility in dilute solutions of sodium carbonate and sodium hydroxide ([1]; dilute sodium carbonate and sodium hydroxide solutions): soluble
Solubility in water ([1]; water): very slightly soluble
Stability of dilute alkaline solutions ([2]; room temperature): stable
Storage stability ([2]; storage): at least 36 months
Intensity of cognition-related adverse events (in words) ([3]; 61-week study): Most cognition-related adverse events were mild in intensity; also recorded: mild or moderate in intensity
Discontinuation due to cognition-related adverse event, patients % ([3]; n = 63): (6.3) %
Discontinuation due to cognition-related adverse event, patients n ([3]; n = 63): 4 patients
Resolution of last cognition-related adverse event: Resolved, patients % ([3]; n = 63): (17.5) %
Resolution of last cognition-related adverse event: Resolved, patients n ([3]; n = 63): 11 patients
Resolution of last cognition-related adverse event: Under treatment/observation, patients % ([3]; n = 63): (7.9) %
Resolution of last cognition-related adverse event: Under treatment/observation, patients n ([3]; n = 63): 5 patients
Any cognition-related adverse event, patients % ([3]; n = 63, 61-week study duration): (25.4) %
Any cognition-related adverse event, patients n ([3]; n = 63, 61-week study duration, pooled hyper/hypokalemic periodic paralysis): 16 patients
Any cognition-related adverse event, patients % ([3]; n = 63, 61-week study duration, listed as dichlorphenamide): 25.4%
Adverse event intensity: Mild, patients % [3, 4]: (14.3) %
Adverse event intensity: Mild, patients n [3, 4]: 9 patients
Adverse event intensity: Moderate, patients % [3, 4]: (7.9) %
Adverse event intensity: Moderate, patients n [3, 4]: 5 patients
Adverse event intensity: Severe, patients % [3, 4]: (3.2) %
Adverse event intensity: Severe, patients n [3, 4]: 2 patients
Any drug-related cognition-related adverse event, patients % [3, 5]: (25.4) %
Any drug-related cognition-related adverse event, patients n [3, 5]: 16 patients
Discontinuation due to cognition-related adverse event, patients % [3, 6]: 6.3%
Discontinuation due to cognition-related adverse event, patients n [3, 6]: Four
Patients with cognition-related adverse event who had the dose of dichlorphenamide reduced, % ([3]; of 16 patients with cognition-related adverse event): 37.5%
Outcome of cognition-related adverse event after dose reduction ([3]; six patients with reduced dose): resolved in all six cases; also recorded: Reduced doses frequently resolved these adverse events
Onset of cognition-related adverse events ([3]; time from start of dichlorphenamide treatment): during the first four weeks; also recorded: within the first month of therapy
